Reference: patent US4954490A, “11 β-substituted progesterone analogs” (Research Triangle Institute, priority 1988, dated 1990)
Values belong to the compound of their own block, whether it stands above or below them.

How the values were obtained:
[1] = target: T1, glucocorticoid receptor (Rattus norvegicus, UniProt P06536); assay: Relative binding affinity to glucocorticoid receptor of thymus (displacement of tritium-labeled dexamethasone); design: species or system rat (adrenalectomized); conditions: relative to dexamethasone (=100)
T1 construct: glucocorticoid receptor from thymus of adrenalectomized rats; from tissue; host or cells: thymus of adrenalectomized rats
T1 sequence (P06536 1-795): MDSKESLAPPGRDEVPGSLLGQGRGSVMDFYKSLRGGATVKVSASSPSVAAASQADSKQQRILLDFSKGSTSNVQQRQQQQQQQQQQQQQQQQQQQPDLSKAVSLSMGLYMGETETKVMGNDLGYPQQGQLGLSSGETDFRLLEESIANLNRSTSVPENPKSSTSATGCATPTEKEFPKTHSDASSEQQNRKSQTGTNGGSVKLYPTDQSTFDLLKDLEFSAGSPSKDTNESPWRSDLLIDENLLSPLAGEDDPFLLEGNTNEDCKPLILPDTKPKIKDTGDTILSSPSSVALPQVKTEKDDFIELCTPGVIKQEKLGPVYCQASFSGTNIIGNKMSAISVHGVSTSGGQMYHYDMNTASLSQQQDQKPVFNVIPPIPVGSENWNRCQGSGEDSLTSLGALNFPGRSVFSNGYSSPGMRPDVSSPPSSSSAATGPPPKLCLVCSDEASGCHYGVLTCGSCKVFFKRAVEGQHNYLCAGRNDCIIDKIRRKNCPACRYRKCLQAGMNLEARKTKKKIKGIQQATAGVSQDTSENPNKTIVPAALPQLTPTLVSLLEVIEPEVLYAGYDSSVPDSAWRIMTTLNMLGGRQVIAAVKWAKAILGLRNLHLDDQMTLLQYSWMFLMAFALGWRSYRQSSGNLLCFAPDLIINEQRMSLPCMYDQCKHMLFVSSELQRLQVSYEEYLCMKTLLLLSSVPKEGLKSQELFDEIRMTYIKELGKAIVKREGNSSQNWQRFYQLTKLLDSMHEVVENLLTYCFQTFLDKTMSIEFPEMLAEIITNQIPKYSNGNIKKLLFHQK
Experimental: (§1) The in vitro activity of the subject compounds was determined by measuring the binding affinities (RBA) of these compounds relative to progesterone for the progesterone receptor in the cytosol obtained from estrogen-primedimmature rabbit uterus and by measuring the RBA relative to dexamethasone for the glucocorticoid receptor from thymus of adrenalectomized rats. These assays were carried out by the procedures of J. R. Reel et al., Fertility and Sterility, 31, 552 (1979) (progesterone) and G. P. Chrousos et al., Endocrinology, 107, 472 (1980) (glucocorticoid).
^b Relative ability to displace tritiumlabeled dexamethasone from the
receptor of the thymus of adrenalectomized rats as compared to […]

[2] = test system: endometrial proliferation (McPhail Index); assay: Progestational activity, intrauterine (McGinty assay); type: in vivo, estrogen-primed immature female rabbits; conditions: right horn control 0
Experimental: In this assay estrogen-primed immature female rabbits are treated by injection of the test compound into the left horn of the uterus while the right horn is left untreated as a control. Each horn is then scored for endometrial proliferation by the McPhail Index. […] It indicates a possible need for reassessment of the current hypotheses regarding the effect of this substituent on antagonist versus agonist activity.

[3] = test system: endometrial response due to subcutaneous administration of progesterone; assay: Anti-McGinty intrauterine antiprogestational test; type: in vivo, estrogen-primed immature female rabbits; conditions: intrauterine
Experimental: The antiprogestational activity of the compounds was studied after both intrauterine and oral administration. In each case the compound was tested for its ability to inhibit the endometrial response due to subcutaneous administration of progesterone to estrogen-primed immature female rabbits. The methodology used for the intrauterine test has been described by D. A. McGinty et al. See Endocrinology, 24, 829 (1939). For oral administration of test compounds, the method used was analogous to that of Clauberg. See Clauberg, Zentr. Gynakol., 54, 2757 (1930) as modified by McPhail J. Physiol. (London), 83, 145 (1935). Each active compound was characterized by a dose-related ability to block the progestational effect of simultaneously administered progesterone. When the percent inhibition was plotted versus the log of the dose, linear relationships were obtained. Linear regression analysis permitted calculation of the ED50 and ED90 values (the doses required for 50% and 90% inhibition of the progesterone effect, respectively). The actual dose which gave 90% or more inhibition is also given, although this value is probably less accurate than the calculated values which are based on the dose-response line. […] Since the intrauterine administration bypasses most of the drug-metabolizing systems of the body, especially the liver, intrinsic activity is expected to correlate reasonably well with binding activity to the receptor, according to currently held hypotheses regarding receptor binding.

[4] = target: T2, progesterone receptor (Oryctolagus cuniculus, UniProt P06186); assay: Relative binding affinity to progesterone receptor in uterine cytosol (displacement of tritium-labeled progesterone); design: species or system rabbit (estrogen-primed immature female)
T2 construct: in the cytosol obtained from estrogen-primedimmature rabbit uterus; from tissue; host or cells: uterine cytosol of estrogen-primed immature female rabbits
T2 sequence (P06186 1-930): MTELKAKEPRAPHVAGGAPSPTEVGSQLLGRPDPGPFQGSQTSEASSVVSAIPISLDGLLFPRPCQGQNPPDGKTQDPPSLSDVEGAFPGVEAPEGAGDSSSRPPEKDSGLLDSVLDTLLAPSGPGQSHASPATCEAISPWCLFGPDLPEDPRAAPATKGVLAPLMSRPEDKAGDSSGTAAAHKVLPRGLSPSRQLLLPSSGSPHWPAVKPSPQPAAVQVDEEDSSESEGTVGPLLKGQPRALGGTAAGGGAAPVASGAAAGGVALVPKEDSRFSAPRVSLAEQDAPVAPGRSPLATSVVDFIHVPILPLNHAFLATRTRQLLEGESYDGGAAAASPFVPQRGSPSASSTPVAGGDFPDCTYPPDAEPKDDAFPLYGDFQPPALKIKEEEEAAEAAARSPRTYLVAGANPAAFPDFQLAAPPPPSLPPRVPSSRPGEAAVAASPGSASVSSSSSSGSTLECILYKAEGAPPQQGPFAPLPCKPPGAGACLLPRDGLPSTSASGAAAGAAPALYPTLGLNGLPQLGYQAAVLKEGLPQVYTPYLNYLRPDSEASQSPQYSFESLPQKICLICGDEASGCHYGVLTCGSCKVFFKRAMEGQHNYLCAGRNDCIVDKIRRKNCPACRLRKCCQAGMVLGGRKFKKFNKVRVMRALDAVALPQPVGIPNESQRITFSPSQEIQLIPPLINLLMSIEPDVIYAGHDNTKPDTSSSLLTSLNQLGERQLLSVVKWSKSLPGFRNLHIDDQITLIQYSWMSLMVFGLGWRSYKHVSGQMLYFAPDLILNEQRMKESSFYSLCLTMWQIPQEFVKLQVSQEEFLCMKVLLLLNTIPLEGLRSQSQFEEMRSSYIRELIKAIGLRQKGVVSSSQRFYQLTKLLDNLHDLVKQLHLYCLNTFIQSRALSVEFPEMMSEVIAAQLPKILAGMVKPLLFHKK
Experimental: as §1
^a Relative ability to displace tritiumlabeled progesterone from the
receptor in uterine cytosol from estrogenprimed immature female rabbits a
compared with progesterone (=100).

[5] = test system: estrogen-insensitive T47Dco human breast cancer cells; conditions: Horwitz 1985; cited from earlier work
[6] = test system: Cushing's syndrome; conditions: cited from earlier work
[7] = comparison of mefipristone, ZK 98.299 (II), ZK 98.734 (III); cited from earlier work
[8] = from % Inhib = a + b · ln dose, results variable, data from "best run"

- Glucocort. RBA [1]: 124
- P-RBA/G-RBA ([4]; ratio of RBA values for progesterone receptor to glucocorticoid receptor): 0.65
- Progestin RBA ([4]; relative to progesterone (=100), rabbit uterine cytosol): 80
Structure (SMILES): CC[C@@H]1C[C@H]2[C@@H]3CCC4=CC(=O)CCC4=C3[C@@H](c3ccc(N(C)C)cc3)C[C@]2(C)[C@H]1C(C)=O [Compound 19, 16α-Ethyl-118-(4-N,N-dimethylaminophenyl)-19-norpregna-4,9-diene-3,20-dione]
- McPhail Index, Left Horn (Treated) ([2]; dose 2.0 μg intrauterine): 3.0 ± 0.32
- McPhail Index, Left Horn (Treated) ([2]; dose 4.0 μg intrauterine): 3.7 ± 0.12
- McPhail Index, Left Horn (Treated) ([2]; dose 8.0 μg intrauterine): 3.6 ± 0.10
- ED90 (actual dose) ([3]; footnote c: no inhibition at tested dose): < 80 µg

Structure (SMILES): CC#C[C@]1(O)CC[C@H]2[C@@H]3CCC4=CC(=O)CCC4=C3[C@@H](c3ccc(N(C)C)cc3)C[C@@]21C [RU-486, reference compound]
- growth-inhibitory properties [5]: exhibits growth-inhibitory properties
- ED90 (actual dose) ([3]; actual dose giving ≥ 90% inhibition, results variable, data from "best run"): 1.0 µg
- ED50 [3, 8]: 0.28 µg
- ED90 (calculated) [3, 8]: 0.87 µg
- treatment of Cushing's syndrome ([6]; Nieman et al): successfully used
- antiglucocorticoid activity ([6]; in vivo): very significant antiglucocorticoid activity

Structure (SMILES): CN(C)c1ccc(C2CC3(C)C(CCC3(O)CCCO)C3CCC4=CC(=O)CCC4=C23)cc1 (stereo not drawn) [ZK 98.299]
- antiglucocorticoid activity relative to antigestagenic potency (rank) [7]: intermediate position

Structure (SMILES): CN(C)c1ccc([C@H]2C[C@@]3(C)[C@@H](CC[C@@]3(O)/C=C\CO)[C@@H]3CCC4=CC(=O)CCC4=C32)cc1 [ZK 98.734]
- antiglucocorticoid activity relative to antigestagenic potency (rank) [7]: least active
